This passage reports EC50 results from patent US10035760B2, “Inhibitors of human immunodeficiency virus replication” (priority 2013, dated 2018).

Like-named read-outs stand apart in the source and are kept apart here.

In this experiment the test system is recombinant NL4-3 virus (Renilla luciferase) in MT-2 cells. The experiment is described as follows: HIV cell culture assay (antiviral activity, luciferase readout in infected MT-2 cells). The class given is cell-based. As to conditions: Renilla. As for the experimental part: HIV cell culture assay—MT-2 cells, 293T cells and the proviral DNA clone of NL4-3 virus were obtained from the NIH AIDS Research and Reference Reagent Program. MT-2 cells were propagated in RPMI 1640 media supplemented with 10% heat inactivated fetal bovine serum (FBS), 100 ug/ml penicillin G and up to 100 units/ml streptomycin. The 293T cells were propagated in DMEM media supplemented with 10% heat inactivated FBS, 100 ug/ml penicillin G and 100 ug/ml streptomycin. A recombinant NL4-3 proviral clone, in which a section of the nef gene was replaced with the Renilla luciferase gene, was used to make the reference virus used in these studies. The recombinant virus was prepared through transfection of the recombinant NL4-3 proviral clone into 293T cells using Transit-293 Transfection Reagent from Mirus Bio LLC (Madison, Wis.). Supernatent was harvested after 2-3 days after transfection, and the amount of virus present was titered in MT-2 cells using luciferase enzyme activity as a marker. Luciferase activity was quantitated using the EnduRen Live Cell Substrate from Promega (Madison, Wis.). Antiviral activities of compounds toward the recombinant virus were quantified by measuring luciferase activity in MT-2 cells infected for 4-5 days with the recombinant virus in the presence of serial dilutions of the compound.
The 50% effective concentration (EC50) was calculated by using the exponential form of the median effect equation where (Fa)=1/[1+(ED50/drug conc.)^m](Johnson V A, Byington R T. Infectivity Assay. In Techniques in HIV Research. ed. Aldovini A, Walker B D. 71-76. New York: Stockton Press. 1990).

Where [1] appears, read: NL43, read-out: Activity, antiviral activity class, recombinant NL4-3 Renilla luciferase virus in MT-2 cells.
Where [2] appears, read: NL43, recombinant NL4-3 Renilla luciferase virus in MT-2 cells.

On to `CN(C(=O)[C@H](Cc1ccccc1)NC(=O)NS(=O)(=O)c1ccccc1)c1ccc2c(c1)OCO2` [Example 1, (S)—N-(benzo[d][1,3]dioxol-5-yl)-N-methyl-3-phenyl-2-(3-(phenylsulfonyl)ureido)propanamide], for which the EC50 runs as follows: under setting [1], 100 to 1000 nM; under setting [2], 260 nM.
As to `Cc1ccccc1S(=O)(=O)NC(=O)N[C@@H](Cc1ccccc1)C(=O)N(C)c1ccc2c(c1)OCO2` [Example 2, (S)—N-(benzo[d][1,3]dioxol-5-yl)-N-methyl-3-phenyl-2-(3-(o-tolylsulfonyl)ureido)propanamide], the EC50 under setting [1] is < 100 nM and the EC50 under setting [2] worked out at 70 nM.
Take `CN(C(=O)[C@H](Cc1ccccc1)NC(=O)NS(=O)(=O)c1cccc(Cl)c1)c1ccc2c(c1)OCO2` [Example 3, (S)—N-(benzo[d][1,3]dioxol-5-yl)-2-(3-((3-chlorophenyl)sulfonyl)ureido)-N-methyl-3-phenylpropanamide]: the EC50 under setting [1] lay within 100 to 1000 nM.
Regarding `CN(C(=O)[C@H](Cc1ccccc1)NC(=O)NS(=O)(=O)C1(C)CC1)c1ccc2c(c1)OCO2` [Example 4, (S)—N-(benzo[d][1,3]dioxol-5-yl)-N-methyl-2-(3-((1-methylcyclopropyl)sulfonyl)ureido)-3-phenylpropanamide], the EC50 is 1000 to 10000 nM under setting [1] and 1110 nM under setting [2].
Regarding `Cc1ccc(S(=O)(=O)NC(=O)N[C@@H](Cc2ccccc2)C(=O)N(C)c2ccc3c(c2)OCO3)cc1` [Example 5, (S)—N-(benzo[d][1,3]dioxol-5-yl)-N-methyl-3-phenyl-2-(3-tosylureido)propanamide], the EC50 under setting [1] is 100 to 1000 nM.
On the same count and under the same terms, to `CN(C(=O)[C@H](Cc1ccccc1)NC(=O)NS(=O)(=O)c1ccc(Cl)cc1)c1ccc2c(c1)OCO2` [Example 6, (S)—N-(benzo[d][1,3]dioxol-5-yl)-2-(3-((4-chlorophenyl)sulfonyl)ureido)-N-methyl-3-phenylpropanamide] belongs 100 to 1000 nM.
For `CN(C(=O)[C@H](Cc1ccccc1)NC(=O)NS(=O)(=O)c1ccccc1Cl)c1ccc2c(c1)OCO2` [Example 7, (S)—N-(benzo[d][1,3]dioxol-5-yl)-2-(3-((2-chlorophenyl)sulfonyl)ureido)-N-methyl-3-phenylpropanamide], under setting [1], the EC50 is < 100 nM.
`COc1ccc(S(=O)(=O)NC(=O)N[C@@H](Cc2ccccc2)C(=O)N(C)c2ccc3c(c2)OCO3)cc1` [Example 8, (S)—N-(benzo[d][1,3]dioxol-5-yl)-2-(3-((4-methoxyphenyl)sulfonyl)ureido)-N-methyl-3-phenylpropanamide]: the EC50 was 100 to 1000 nM under setting [1] and 180 nM under setting [2].
As for `CN(C(=O)[C@H](Cc1ccccc1)NC(=O)NS(=O)(=O)c1ccccc1F)c1ccc2c(c1)OCO2` [Example 9, (S)—N-(benzo[d][1,3]dioxol-5-yl)-2-(3-((2-fluorophenyl)sulfonyl)ureido)-N-methyl-3-phenylpropanamide], the EC50 under setting [1] was < 100 nM.
For `CN(C(=O)[C@H](Cc1ccccc1)NC(=O)NS(=O)(=O)Cc1ccccc1)c1ccc2c(c1)OCO2` [Example 10, (S)—N-(benzo[d][1,3]dioxol-5-yl)-2-(3-(benzylsulfonyl)ureido)-N-methyl-3-phenylpropanamide], under setting [1], the EC50 was 100 to 1000 nM.
As to `CN(C(=O)[C@H](Cc1ccccc1)NC(=O)NS(=O)(=O)c1cc(Cl)cc(Cl)c1)c1ccc2c(c1)OCO2` [Example 11, (S)—N-(benzo[d][1,3]dioxol-5-yl)-2-(3-((3,5-dichlorophenyl)sulfonyl)ureido)-N-methyl-3-phenylpropanamide], the EC50 under setting [1] lay within 100 to 1000 nM.
For `CN(C(=O)[C@H](Cc1ccccc1)NC(=O)NS(=O)(=O)c1cc(Br)ccc1Br)c1ccc2c(c1)OCO2` [Example 12, (S)—N-(benzo[d][1,3]dioxol-5-yl)-2-(3-((2,5-dibromophenyl)sulfonyl)ureido)-N-methyl-3-phenylpropanamide], under setting [1], the EC50 was < 100 nM.
In the case of `Cc1ccc(C)c(S(=O)(=O)NC(=O)N[C@@H](Cc2ccccc2)C(=O)N(C)c2ccc3c(c2)OCO3)c1` [Example 13, (S)—N-(benzo[d][1,3]dioxol-5-yl)-2-(3-((2,5-dimethylphenyl)sulfonyl)ureido)-N-methyl-3-phenylpropanamide], the EC50 was < 100 nM under setting [1] and 50 nM under setting [2].
As to `CN(C(=O)[C@H](Cc1ccccc1)NC(=O)NS(=O)(=O)c1ccccc1OC(F)(F)F)c1ccc2c(c1)OCO2` [Example 14, (S)—N-(benzo[d][1,3]dioxol-5-yl)-N-methyl-3-phenyl-2-(3-((2-(trifluoromethoxy)phenyl)sulfonyl)ureido)propanamide], the EC50 under setting [1] is < 100 nM.
Still for that read-out and setting: the figure for `CN(C(=O)[C@H](Cc1ccccc1)NC(=O)NS(=O)(=O)c1cccc(Cl)c1Cl)c1ccc2c(c1)OCO2` [Example 15, (S)—N-(benzo[d][1,3]dioxol-5-yl)-2-(3-((2,3-dichlorophenyl)sulfonyl)ureido)-N-methyl-3-phenylpropanamide] is < 100 nM; for `Cc1ccc(F)cc1S(=O)(=O)NC(=O)N[C@@H](Cc1ccccc1)C(=O)N(C)c1ccc2c(c1)OCO2` [Example 16, (S)—N-(benzo[d][1,3]dioxol-5-yl)-2-(3-((5-fluoro-2-methylphenyl)sulfonyl)ureido)-N-methyl-3-phenylpropanamide] it is < 100 nM.
With `CN(C(=O)[C@H](Cc1ccccc1)NC(=O)NS(=O)(=O)c1ccccc1C(F)(F)F)c1ccc2c(c1)OCO2` [Example 17, (S)—N-(benzo[d][1,3]dioxol-5-yl)-N-methyl-3-phenyl-2-(3-((2-(trifluoromethyl)phenyl)sulfonyl)ureido)propanamide], the EC50 under setting [1] fell in the range of 100 to 1000 nM.
As for `CN(C(=O)[C@H](Cc1ccccc1)NC(=O)NS(=O)(=O)c1ccc(F)cc1F)c1ccc2c(c1)OCO2` [Example 18, (S)—N-(benzo[d][1,3]dioxol-5-yl)-2-(3-((2,4-difluorophenyl)sulfonyl)ureido)-N-methyl-3-phenylpropanamide], the EC50 is, setting by setting: under setting [1], 100 to 1000 nM; under setting [2], 200 nM.
For `CN(C(=O)[C@H](Cc1ccccc1)NC(=O)NS(=O)(=O)c1cccc(Br)c1)c1ccc2c(c1)OCO2` [Example 19, (S)—N-(benzo[d][1,3]dioxol-5-yl)-2-(3-((3-bromophenyl)sulfonyl)ureido)-N-methyl-3-phenylpropanamide], the EC50 under setting [1] was 100 to 1000 nM.
Turning to `COc1cccc(S(=O)(=O)NC(=O)N[C@@H](Cc2ccccc2)C(=O)N(C)c2ccc3c(c2)OCO3)c1` [Example 20, (S)—N-(benzo[d][1,3]dioxol-5-yl)-2-(3-((3-methoxyphenyl)sulfonyl)ureido)-N-methyl-3-phenylpropanamide], the EC50 runs as follows: under setting [1], < 100 nM; under setting [2], 90 nM.
For `CN(C(=O)[C@H](Cc1ccccc1)NC(=O)NS(=O)(=O)c1ccc([N+](=O)[O-])cc1)c1ccc2c(c1)OCO2` [Example 21, (S)—N-(benzo[d][1,3]dioxol-5-yl)-N-methyl-2-(3-((4-nitrophenyl)sulfonyl)ureido)-3-phenylpropanamide], the EC50 under setting [1] lay in the range of 1000 to 10000 nM.
Same read-out and setting: the figure for `CN(C(=O)[C@H](Cc1ccccc1)NC(=O)NS(=O)(=O)c1ccc(F)cc1)c1ccc2c(c1)OCO2` [Example 22, (S)—N-(benzo[d][1,3]dioxol-5-yl)-2-(3-((4-fluorophenyl)sulfonyl)ureido)-N-methyl-3-phenylpropanamide] is 100 to 1000 nM; for `COC(=O)c1ccccc1S(=O)(=O)NC(=O)N[C@@H](Cc1ccccc1)C(=O)N(C)c1ccc2c(c1)OCO2` [Example 23, (S)-methyl 2-(N-((1-(benzo[d][1,3]dioxol-5-yl(methyl)amino)-1-oxo-3-phenylpropan-2-yl)carbamoyl)sulfamoyl)benzoate] it is 1000 to 10000 nM; for `CN(C(=O)[C@H](Cc1ccccc1)NC(=O)NS(=O)(=O)CCc1ccccc1)c1ccc2c(c1)OCO2` [Example 24, (S)—N-(benzo[d][1,3]dioxol-5-yl)-N-methyl-2-(3-(phenethylsulfonyl)ureido)-3-phenylpropanamide] it is 100 to 1000 nM.
As to `CN(C(=O)[C@H](Cc1ccccc1)NC(=O)NS(=O)(=O)CCCc1ccccc1)c1ccc2c(c1)OCO2` [Example 25, (S)—N-(benzo[d][1,3]dioxol-5-yl)-N-methyl-3-phenyl-2-(3-((3-phenylpropyl)sulfonyl)ureido)propanamide], the EC50 is, setting by setting: under setting [1], 100 to 1000 nM; under setting [2], 930 nM.
In the case of `CN(C(=O)[C@H](Cc1ccccc1)NC(=O)NS(=O)(=O)c1ccc(F)c(F)c1)c1ccc2c(c1)OCO2` [Example 26, (S)—N-(benzo[d][1,3]dioxol-5-yl)-2-(3-((3,4-difluorophenyl)sulfonyl)ureido)-N-methyl-3-phenylpropanamide], the EC50 under setting [1] lay within 100 to 1000 nM.
In the case of `Cc1ccc(S(=O)(=O)NC(=O)N[C@@H](Cc2ccccc2)C(=O)N(C)c2ccc3c(c2)OCO3)s1` [Example 27, (S)—N-(benzo[d][1,3]dioxol-5-yl)-N-methyl-2-(3-((5-methylthiophen-2-yl)sulfonyl)ureido)-3-phenylpropanamide], under setting [1], the EC50 was 100 to 1000 nM.
The same measure, in the same setting: the figure for `Cc1c(Cl)cccc1S(=O)(=O)NC(=O)N[C@@H](Cc1ccccc1)C(=O)N(C)c1ccc2c(c1)OCO2` [Example 28, (S)—N-(benzo[d][1,3]dioxol-5-yl)-2-(3-((3-chloro-2-methylphenyl)sulfonyl)ureido)-N-methyl-3-phenylpropanamide] is < 100 nM.
